Experiment [1] relates to hematopoietic progenitor cells. Briefly: Colony assay in methylcellulose (CFU) of transduced bone marrow progenitor cells. The class given is cell-based, mouse. The following applies: expression of the transgene in the cells; FIG. 9. How it is done:
Mouse Low Density Bone Marrow (LDBM) Isolation and Viral Transduction: Whole bone marrow was collected from C57B1/6 animals (Jackson Laboratory, Bar Harbor, Me.), 48 h after treatment with 5-fluorouracil (150 mg/kg of body weight, IP; American Pharmaceutical Partners, Los Angeles, Calif.) and was re-suspended in RPMI medium (Life Technologies, Inc.). Bone marrow cells were obtained from the animals, and low-density, mononuclear bone marrow (LDBM) cells are isolated from fresh bone marrow (BM) by density centrifugation on Histopaque-1083 (Sigma, […].) gradient for 20 min at 1,700 rpm at room temperature. Cells at the interface were collected and washed twice with Roswell Park Memorial Institute (RPMI) Media and then counted on a hemocytometer. […] Cells were subsequently analyzed and sorted for green fluorescence protein (GFP) using a Fluorescence Activated Cell Sorting (FACS) (Becton Dickinson, San Jose, Calif.). […]
The transduction efficiency of the cells was tested using the following assay: Colony assay: 2×10^4 cells re-suspended in 4 mL complete methylcellulose (Metho Cult™ GF M3434, Stem Cell Technologies) were plated in 35 mm grided non-tissue culture dishes (Nalge Nunc Int.) (1 mL/dish). The colonies were scored after 10 days incubation in 5% CO2 at 37° C. […]

Another experiment has as its system hematopoietic stem cells. The experiment in a line: In vivo transplantation and engraftment study (EGFP+ cells by FACS and CFU). More on the design: species or system C57BL/6 mice. How it is done:
FIG. 2 is a graphical representation of the experimental design showing the design for injecting mice with bone marrow cells. The peripheral blood (PB) cells were tested for EGFP+ cells by FACS analysis and the bone marrow (BM) cells were tested for EGFP+ cells by FACS analysis and by CFU assay.
4×10^5 cells were injected into C57BL/6 mice (8-10 weeks old). Prior to the transplant, the mice were irradiated with 11.75 Gy in split dose (7 Gy and 4.75 Gy) using a Cs^137 source with a minimum of 3 h between doses. For engraftment studies, 100 μL tail vein blood samples were withdrawn from each transplanted mouse every 4 weeks. Peripheral blood cells were incubated in red blood cell lysis buffer (Pharmingen, San Diego, Calif.) for […] at room temperature. Cells were then washed twice and re-suspended in 1 ml of PBS and 0.2% bovine serum albumin (BSA) (Roche Applied Sciences, Indianapolis, Ind.). The percentages of GFP^+ cells of each sample were analyzed by flow cytometry. Sixteen weeks post transplant bone marrow and spleen were isolated from the experimental animals. Cells isolated from these organs were incubated in red blood cells lysis buffer, re-suspended in PBS, 0.2% BSA and analyzed by flow cytometry, as described above.
The ability of hematopoietic progenitor cells to form colonies was analyzed in the presence of various transgenes expressing normal and mutated forms of GTPases. […]

Consider “Cdc42N17: dominant negative Cdc42 cDNA cloned into a murine stem cell virus-based bicistronic EGFP vector”, for which, in experiment [1], the “ability of hematopoietic progenitor cells to form colonies” value is listed as “not affected”.

As for “RhoAN19: dominant negative mouse RhoA protein with threonine to asparagine point mutation at position 19, expressed from retroviral vector”, the “ability of hematopoietic progenitor cells to form colonies” value in experiment [1] was “not affected”. Also, the “engraftment: EGFP+ peripheral blood cells in transplanted animals” value in the experiment with hematopoietic stem cells (3, 7, 11 and 16 weeks post transplant, normalized to control cells at 3 weeks, FIG. 6) is on record as “advantageous”. Moreover, the “stem cell (HSC) engraftment” value in the experiment with hematopoietic stem cells (peripheral blood, bone marrow, spleen, CFU, secondary transplant, FIGS. 6, 8, 9 and 10) is listed as “advantageous”.

For the origin of these results see patent publication US20050238666A1, “Methods of enhancing stem cell engraftment” (priority 2003, published 2005).
